# Patent publication US6620828B2, “Thiazole compounds and pharmaceutical compositions for inhibiting protein kinases and methods for their use” (Agouron Pharmaceuticals, Inc., priority 1999, dated 2003)
# Molecular target: T1, FL-CHK1 (Homo sapiens, UniProt O14757)
# T1 construct: C-terminally His-tagged full-length human CHK1 (FL-CHK1); 6xHis (C); made in house; host or cells: baculovirus/insect cells
# T1 sequence (O14757 1-476): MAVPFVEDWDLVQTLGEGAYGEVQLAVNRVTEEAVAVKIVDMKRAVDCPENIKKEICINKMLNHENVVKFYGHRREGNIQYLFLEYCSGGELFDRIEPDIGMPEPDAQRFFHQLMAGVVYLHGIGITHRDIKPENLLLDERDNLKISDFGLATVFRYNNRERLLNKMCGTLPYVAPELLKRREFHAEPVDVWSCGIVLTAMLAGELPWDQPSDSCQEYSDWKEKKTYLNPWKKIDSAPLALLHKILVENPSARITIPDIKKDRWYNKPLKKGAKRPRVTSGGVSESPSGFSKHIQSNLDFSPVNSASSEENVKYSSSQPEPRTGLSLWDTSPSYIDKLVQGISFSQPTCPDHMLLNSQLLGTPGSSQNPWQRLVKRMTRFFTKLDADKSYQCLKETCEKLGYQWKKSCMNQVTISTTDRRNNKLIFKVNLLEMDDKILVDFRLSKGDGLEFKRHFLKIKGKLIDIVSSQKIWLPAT
# Test: CHK1 assay
# Format: biochemical
# Details: 20 μM; combinatorial library compounds
# Method in brief: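 Full-length human CHK1 with C-terminal 6×His tag, made in baculovirus/insect cells, 10 nM, phosphorylating 0.125 mM Syntide-2 with 0.15 mM ATP in 50 mM Tris pH 7.5, 25 mM MgCl2, 400 mM NaCl. PK/LDH-coupled NADH oxidation read at 340 nm. Ki from initial rates over varied compound concentrations.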
row,Compound,inhibition at 20 µM [%]
1,Nc1nc(Nc2ccc(S(N)(=O)=O)cc2)sc1-c1nc(-c2ccc3ccccc3c2)cs1,7.8
2,COc1ccc(-c2csc(-c3sc(Nc4ccc(N(C)C)cc4)nc3N)n2)c(OC)c1,3.1
3,CN(C)c1ccc(Nc2nc(N)c(-c3nc(-c4ccc5oc6ccccc6c5c4)cs3)s2)cc1,29.3
4,Nc1nc(Nc2ccc(S(N)(=O)=O)cc2)sc1-c1nc(-c2ccc(C(F)(F)F)cc2)cs1,4.2
5,Cc1onc(-c2ccccc2)c1-c1csc(-c2sc(Nc3ccc(N(C)C)cc3)nc2N)n1,8.1
6,CN(C)c1ccc(Nc2nc(N)c(-c3nc(-c4ccc(F)cc4F)cs3)s2)cc1,25.2
7,CCN(CC)c1ccc(-c2csc(-c3sc(Nc4ccc(N(C)C)cc4)nc3N)n2)cc1,17.4
8,Nc1nc(Nc2ccc(S(N)(=O)=O)cc2)sc1-c1nc(-c2cc(Br)c(Cl)s2)cs1,7.9

# Now from value to compound:
row,inhibition at 20 µM [%],Compound
1,14.2,CN(C)c1ccc(Nc2nc(N)c(-c3nc(-c4cccc(Br)c4)cs3)s2)cc1
2,32.3,Cc1c(-c2csc(-c3sc(Nc4ccc(C(C)C)cc4)nc3N)n2)sc2ccc(Cl)cc12 [drawing 487]
3,11.6,CC(C)c1ccc(Nc2nc(N)c(-c3nc(-c4ccc5c(c4)C(C)(C)CCC5(C)C)cs3)s2)cc1
4,7.9,CC(C)c1ccc(Nc2nc(N)c(-c3nc(-c4cc(C(C)(C)C)c(O)c(C(C)(C)C)c4)cs3)s2)cc1
5,12,CC(C)c1ccc(Nc2nc(N)c(-c3nc(-c4cccc(Br)c4)cs3)s2)cc1
6,-2.5,Cc1ccc(-c2csc(-c3sc(Nc4ccc(C(C)C)cc4)nc3N)n2)c(C)c1
7,-5.2,COc1ccc(OC)c(-c2csc(-c3sc(Nc4ccc(C(C)C)cc4)nc3N)n2)c1
8,7.6,CN(C)c1ccc(Nc2nc(N)c(-c3nc(-c4cc5cc(Cl)ccc5o4)cs3)s2)cc1
9,7.2,CC(C)c1ccc(Nc2nc(N)c(-c3nc(-c4cccc([N+](=O)[O-])c4)cs3)s2)cc1
10,21.1,Cc1c(F)cc(-c2csc(-c3sc(Nc4ccc(S(N)(=O)=O)cc4)nc3N)n2)cc1Cl [drawing 440]
11,6.5,CCc1cc2c(cc1-c1csc(-c3sc(Nc4ccc(C(C)C)cc4)nc3N)n1)C(C)(C)CCC2(C)C

# Molecular target: T2, phosphorylated VEGF-R2Δ50 (FLVK-P) (Homo sapiens, UniProt P35968, DEL940-989/E990V)
# T2 construct: VEGF-R2Δ50 contains residues 806-939 and 990-1171; made in house; host or cells: baculovirus/insect cells
# Test: VEGF-R2 coupled spectrophotometric (FLVK-P) assay
# Format: biochemical
# Details: read-out: VEGF % inhibition at 20 μM, 20 μM; combinatorial library compounds
# Method in brief: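 Baculovirus-expressed human VEGF-R2Δ50 (residues 806-939/990-1171, E990V) was autophosphorylated with 3 mM ATP, 40 mM MgCl2 for 2 h at 4° C. ADP formation was coupled via PK/LDH to NADH oxidation, read at 340 nm, with 5.1 mM poly(E4Y1), 1 mM ATP, 25 mM MgCl2, Hepes pH 7.5. Ki came from activity across compound concentrations.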
# T2 sequence (P35968 with tags, fused parts or gaps DEL940-989/E990V limits assumed): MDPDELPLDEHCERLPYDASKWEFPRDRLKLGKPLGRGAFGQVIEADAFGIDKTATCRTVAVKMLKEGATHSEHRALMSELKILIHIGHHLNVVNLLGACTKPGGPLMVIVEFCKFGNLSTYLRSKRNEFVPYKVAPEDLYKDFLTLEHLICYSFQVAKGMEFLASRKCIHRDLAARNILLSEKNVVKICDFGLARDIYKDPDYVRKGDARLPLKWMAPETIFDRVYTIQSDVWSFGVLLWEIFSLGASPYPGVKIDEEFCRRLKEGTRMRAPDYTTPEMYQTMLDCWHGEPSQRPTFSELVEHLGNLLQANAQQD
row,Compound,inhibition at 20 µM [%]
1,Nc1nc(Nc2ccc(S(N)(=O)=O)cc2)sc1-c1nc(-c2ccc3ccccc3c2)cs1,12
2,COc1ccc(-c2csc(-c3sc(Nc4ccc(N(C)C)cc4)nc3N)n2)c(OC)c1,1
3,CN(C)c1ccc(Nc2nc(N)c(-c3nc(-c4ccc5oc6ccccc6c5c4)cs3)s2)cc1,27
4,Nc1nc(Nc2ccc(S(N)(=O)=O)cc2)sc1-c1nc(-c2ccc(C(F)(F)F)cc2)cs1,2
5,Cc1onc(-c2ccccc2)c1-c1csc(-c2sc(Nc3ccc(N(C)C)cc3)nc2N)n1,25
6,CN(C)c1ccc(Nc2nc(N)c(-c3nc(-c4ccc(F)cc4F)cs3)s2)cc1,34
7,CCN(CC)c1ccc(-c2csc(-c3sc(Nc4ccc(N(C)C)cc4)nc3N)n2)cc1,16
8,Nc1nc(Nc2ccc(S(N)(=O)=O)cc2)sc1-c1nc(-c2cc(Br)c(Cl)s2)cs1,6

# More lines, now with the values ahead:
row,inhibition at 20 µM [%],Compound
1,17,CN(C)c1ccc(Nc2nc(N)c(-c3nc(-c4cccc(Br)c4)cs3)s2)cc1
2,47,Cc1c(-c2csc(-c3sc(Nc4ccc(C(C)C)cc4)nc3N)n2)sc2ccc(Cl)cc12 [drawing 487]
3,19,CC(C)c1ccc(Nc2nc(N)c(-c3nc(-c4ccc5c(c4)C(C)(C)CCC5(C)C)cs3)s2)cc1
4,-6,CC(C)c1ccc(Nc2nc(N)c(-c3nc(-c4cc(C(C)(C)C)c(O)c(C(C)(C)C)c4)cs3)s2)cc1
5,5,CC(C)c1ccc(Nc2nc(N)c(-c3nc(-c4cccc(Br)c4)cs3)s2)cc1
6,14,Cc1ccc(-c2csc(-c3sc(Nc4ccc(C(C)C)cc4)nc3N)n2)c(C)c1
7,12,COc1ccc(OC)c(-c2csc(-c3sc(Nc4ccc(C(C)C)cc4)nc3N)n2)c1
8,-3,CN(C)c1ccc(Nc2nc(N)c(-c3nc(-c4cc5cc(Cl)ccc5o4)cs3)s2)cc1
9,-2,CC(C)c1ccc(Nc2nc(N)c(-c3nc(-c4cccc([N+](=O)[O-])c4)cs3)s2)cc1
10,5,Cc1c(F)cc(-c2csc(-c3sc(Nc4ccc(S(N)(=O)=O)cc4)nc3N)n2)cc1Cl [drawing 440]
11,13,CCc1cc2c(cc1-c1csc(-c3sc(Nc4ccc(C(C)C)cc4)nc3N)n1)C(C)(C)CCC2(C)C

# Molecular target: T3, CDK4/Cyclin D3 complex (Homo sapiens, UniProt P11802)
# T3 construct: made in house; host or cells: insect cells co-infected with baculovirus vectors
# Test: CDK4/Cyclin D assay
# Format: biochemical
# Details: 1.0 μM; combinatorial library compounds
# Method in brief: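 Insect-cell-expressed CDK4/cyclin D3 (50 nM) phosphorylating His-tagged Rb fragment (residues 386-928) with 25 μM [^32P]ATP in HEPES pH 7.4, MgCl2, 2% DMSO; 20 min at 30 °C, EDTA stop. Filter-captured 32P by phosphorimager; apparent Ki from competitive or tight-binding inhibition fits.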
# T3 sequence (P11802 whole entry): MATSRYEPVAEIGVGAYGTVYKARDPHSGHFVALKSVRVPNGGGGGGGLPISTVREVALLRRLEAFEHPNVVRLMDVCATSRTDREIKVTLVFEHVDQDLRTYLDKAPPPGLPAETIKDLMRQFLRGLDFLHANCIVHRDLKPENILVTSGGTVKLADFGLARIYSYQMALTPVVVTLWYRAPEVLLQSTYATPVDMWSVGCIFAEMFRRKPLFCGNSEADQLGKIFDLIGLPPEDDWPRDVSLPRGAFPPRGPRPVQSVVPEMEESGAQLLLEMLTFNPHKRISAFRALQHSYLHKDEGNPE
# T3 sequence (P30281 whole entry partner): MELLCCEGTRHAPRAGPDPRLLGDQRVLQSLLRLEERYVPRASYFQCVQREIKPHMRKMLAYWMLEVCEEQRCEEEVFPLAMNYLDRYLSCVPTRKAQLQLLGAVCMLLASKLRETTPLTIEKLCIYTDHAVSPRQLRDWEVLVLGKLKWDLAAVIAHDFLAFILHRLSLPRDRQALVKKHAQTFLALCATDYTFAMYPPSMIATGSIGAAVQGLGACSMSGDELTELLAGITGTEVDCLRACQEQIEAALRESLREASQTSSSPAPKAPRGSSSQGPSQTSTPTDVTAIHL
row,Compound,inhibition at 1 µM [%]
1,Nc1nc(Nc2ccc(S(N)(=O)=O)cc2)sc1-c1nc(-c2ccc3ccccc3c2)cs1,-8.9
2,COc1ccc(-c2csc(-c3sc(Nc4ccc(N(C)C)cc4)nc3N)n2)c(OC)c1,35.4
3,CN(C)c1ccc(Nc2nc(N)c(-c3nc(-c4ccc5oc6ccccc6c5c4)cs3)s2)cc1,63.5
4,Nc1nc(Nc2ccc(S(N)(=O)=O)cc2)sc1-c1nc(-c2ccc(C(F)(F)F)cc2)cs1,-3.6
5,Cc1onc(-c2ccccc2)c1-c1csc(-c2sc(Nc3ccc(N(C)C)cc3)nc2N)n1,59.8
6,CN(C)c1ccc(Nc2nc(N)c(-c3nc(-c4ccc(F)cc4F)cs3)s2)cc1,64.3
7,CCN(CC)c1ccc(-c2csc(-c3sc(Nc4ccc(N(C)C)cc4)nc3N)n2)cc1,57.8
8,Nc1nc(Nc2ccc(S(N)(=O)=O)cc2)sc1-c1nc(-c2cc(Br)c(Cl)s2)cs1,56.4

# Next, values leading:
row,inhibition at 1 µM [%],Compound
1,30.1,CN(C)c1ccc(Nc2nc(N)c(-c3nc(-c4cccc(Br)c4)cs3)s2)cc1
2,79.6,Cc1c(-c2csc(-c3sc(Nc4ccc(C(C)C)cc4)nc3N)n2)sc2ccc(Cl)cc12 [drawing 487]
3,74.4,CC(C)c1ccc(Nc2nc(N)c(-c3nc(-c4ccc5c(c4)C(C)(C)CCC5(C)C)cs3)s2)cc1
4,46.8,CC(C)c1ccc(Nc2nc(N)c(-c3nc(-c4cc(C(C)(C)C)c(O)c(C(C)(C)C)c4)cs3)s2)cc1
5,48.1,CC(C)c1ccc(Nc2nc(N)c(-c3nc(-c4cccc(Br)c4)cs3)s2)cc1
6,50,Cc1ccc(-c2csc(-c3sc(Nc4ccc(C(C)C)cc4)nc3N)n2)c(C)c1
7,79.4,COc1ccc(OC)c(-c2csc(-c3sc(Nc4ccc(C(C)C)cc4)nc3N)n2)c1
8,29.6,CN(C)c1ccc(Nc2nc(N)c(-c3nc(-c4cc5cc(Cl)ccc5o4)cs3)s2)cc1
9,35.3,CC(C)c1ccc(Nc2nc(N)c(-c3nc(-c4cccc([N+](=O)[O-])c4)cs3)s2)cc1
10,75,Cc1c(F)cc(-c2csc(-c3sc(Nc4ccc(S(N)(=O)=O)cc4)nc3N)n2)cc1Cl [drawing 440]
11,61.4,CCc1cc2c(cc1-c1csc(-c3sc(Nc4ccc(C(C)C)cc4)nc3N)n1)C(C)(C)CCC2(C)C

# Molecular target: CDK2/Cyclin A complex (Homo sapiens, UniProt P24941)
# Test: CDK2/Cyclin A assay
# Format: biochemical
# Details: 1.0 μM; combinatorial library compounds
# Method in brief: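 Radiometric assay: 150 nM CDK2/cyclin A (insect-cell CDK2, truncated cyclin A) phosphorylates His-tagged Rb fragment (residues 386-928) with 25 μM ATP plus [32P]ATP, pH 7.4 HEPES, 2% DMSO, 30 °C for 20 min. Filter-captured product counted by phosphorimager; apparent Ki from competitive or tight-binding inhibition fits.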
row,Compound,inhibition at 1 µM [%]
1,Nc1nc(Nc2ccc(S(N)(=O)=O)cc2)sc1-c1nc(-c2ccc3ccccc3c2)cs1,25.5
2,COc1ccc(-c2csc(-c3sc(Nc4ccc(N(C)C)cc4)nc3N)n2)c(OC)c1,6.7
3,CN(C)c1ccc(Nc2nc(N)c(-c3nc(-c4ccc5oc6ccccc6c5c4)cs3)s2)cc1,38.3
4,Nc1nc(Nc2ccc(S(N)(=O)=O)cc2)sc1-c1nc(-c2ccc(C(F)(F)F)cc2)cs1,4.5
5,Cc1onc(-c2ccccc2)c1-c1csc(-c2sc(Nc3ccc(N(C)C)cc3)nc2N)n1,8.3
6,CN(C)c1ccc(Nc2nc(N)c(-c3nc(-c4ccc(F)cc4F)cs3)s2)cc1,20.3
7,CCN(CC)c1ccc(-c2csc(-c3sc(Nc4ccc(N(C)C)cc4)nc3N)n2)cc1,14.6
8,Nc1nc(Nc2ccc(S(N)(=O)=O)cc2)sc1-c1nc(-c2cc(Br)c(Cl)s2)cs1,60.5

# Other lines, results leading:
row,inhibition at 1 µM [%],Compound
1,29,CN(C)c1ccc(Nc2nc(N)c(-c3nc(-c4cccc(Br)c4)cs3)s2)cc1
2,38.6,Cc1c(-c2csc(-c3sc(Nc4ccc(C(C)C)cc4)nc3N)n2)sc2ccc(Cl)cc12 [drawing 487]
3,5.2,CC(C)c1ccc(Nc2nc(N)c(-c3nc(-c4ccc5c(c4)C(C)(C)CCC5(C)C)cs3)s2)cc1
4,20.9,CC(C)c1ccc(Nc2nc(N)c(-c3nc(-c4cc(C(C)(C)C)c(O)c(C(C)(C)C)c4)cs3)s2)cc1
5,14.6,CC(C)c1ccc(Nc2nc(N)c(-c3nc(-c4cccc(Br)c4)cs3)s2)cc1
6,23.3,Cc1ccc(-c2csc(-c3sc(Nc4ccc(C(C)C)cc4)nc3N)n2)c(C)c1
7,12.2,COc1ccc(OC)c(-c2csc(-c3sc(Nc4ccc(C(C)C)cc4)nc3N)n2)c1
8,16.9,CN(C)c1ccc(Nc2nc(N)c(-c3nc(-c4cc5cc(Cl)ccc5o4)cs3)s2)cc1
9,24.7,CC(C)c1ccc(Nc2nc(N)c(-c3nc(-c4cccc([N+](=O)[O-])c4)cs3)s2)cc1
10,68,Cc1c(F)cc(-c2csc(-c3sc(Nc4ccc(S(N)(=O)=O)cc4)nc3N)n2)cc1Cl [drawing 440]
11,6.2,CCc1cc2c(cc1-c1csc(-c3sc(Nc4ccc(C(C)C)cc4)nc3N)n1)C(C)(C)CCC2(C)C
